Laboratory results as given in ChEMBL document CHEMBL5316306 (J Med Chem, 2023).
pEC50, pIC50: −log10 of the molar value. Active and inactive are the calls of the source. The calls are words filed in the database; no cut-off is given here.

Tests used:
[1] = target: T1, Proteasome subunit beta type-8 (Homo sapiens, UniProt P28062); assay: Inhibition of human 20s immunoproteasome beta-5i subunit
T1 sequence (P28062 whole entry): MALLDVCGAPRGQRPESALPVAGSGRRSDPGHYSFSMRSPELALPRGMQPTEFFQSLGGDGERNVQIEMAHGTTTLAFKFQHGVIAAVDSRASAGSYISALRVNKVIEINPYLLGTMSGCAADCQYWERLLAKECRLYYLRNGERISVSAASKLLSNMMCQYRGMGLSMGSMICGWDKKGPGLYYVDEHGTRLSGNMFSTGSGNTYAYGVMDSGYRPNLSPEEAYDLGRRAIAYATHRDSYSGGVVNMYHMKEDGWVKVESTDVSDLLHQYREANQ

[2] = target: T2, Proteasome Macropain subunit MB1 (Homo sapiens, UniProt P28074); assay: Inhibition of human 20s constitutive proteasome beta-5c
T2 sequence (P28074 whole entry): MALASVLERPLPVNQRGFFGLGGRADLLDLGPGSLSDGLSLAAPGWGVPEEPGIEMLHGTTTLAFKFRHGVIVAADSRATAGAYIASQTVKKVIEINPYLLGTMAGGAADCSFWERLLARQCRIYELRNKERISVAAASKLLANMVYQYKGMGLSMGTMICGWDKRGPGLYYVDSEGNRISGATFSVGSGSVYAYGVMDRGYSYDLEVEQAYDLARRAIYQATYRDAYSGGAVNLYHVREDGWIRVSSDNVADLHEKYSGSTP

[3] = target: T3, Proteasome subunit beta type-8 (Homo sapiens) (UniProt P28062); conditions: dose 250.0 nM, time <= 90.0 min
T3 sequence (whole entry): T1 sequence (P28062 whole entry)

[4] = test system: RPMI-8226; assay: Cytotoxicity against human RPMI-8226 cells after 72 hrs by celltitre-glo assay; type: functional, cell-based; conditions: RPMI-8226, 72 h
[5] = test system: HepG2; assay: Cytotoxicity against human HepG2 cells after 72 hrs by celltitre-glo assay; type: functional, cell-based; conditions: HepG2, 72 h
[6] = target: T4, Proteasome Macropain subunit MB1 (Homo sapiens) (UniProt P28074); assay: Time dependent inhibition of human 20s constitutive proteasome beta-5c assessed as restoration of enzyme activity at 10 nM using suc-LLVY-AMC as substrate; conditions: time <= 90.0 min, TDE = time-dependent effect
T4 sequence (whole entry): T2 sequence (P28074 whole entry)

[7] = target: T4, Proteasome Macropain subunit MB1 (Homo sapiens); assay: Inhibition of 20s constitutive proteasome beta-5c (unknown origin) assessed as recovery half life time
[8] = test system: MM1.S; assay: Cytotoxicity against human MM1.S cells after 72 hrs by celltitre-glo assay; type: functional, cell-based
[9] = target: T1, Proteasome subunit beta type-8; assay: Inhibition of 20s immunoproteasome beta-5i subunit (unknown origin)
[10] = target: T2, Proteasome Macropain subunit MB1; assay: Inhibition of 20s constitutive proteasome beta-5c (unknown origin)
[11] = test system: MM1.S; assay: Synergistic cytotoxic activity against human MM1.S cells after 72 hrs in presence of 0.01 uM of (S)-(3-((2-(2-(1H-indol-3-yl)-2-oxoacetamido)-4-(tert-butylamino)-4-oxobutanamido)methyl)phenyl)boronic acid by celltitre-glo assay; type: functional, cell-based
[12] = test system: RPMI-8226; assay: Synergistic cytotoxic activity against human RPMI-8226 cells after 72 hrs in presence of 0.5 uM of (S)-(3-((2-(2-(1H-indol-3-yl)-2-oxoacetamido)-4-(tert-butylamino)-4-oxobutanamido)methyl)phenyl)boronic acid by celltitre-glo assay; type: functional, cell-based
[13] = target: T3, Proteasome subunit beta type-8 (Homo sapiens); assay: Inhibition of 20s immunoproteasome beta-5i in human PBMC cells incubated by proteasome glo assay kit analysis; type: cell-based; conditions: time <= 1.0 hrs
[14] = target: T5, Proteasome subunit beta type-10 (Homo sapiens, UniProt P40306); assay: Inhibition of human 20s immunoproteasome beta-2i subunit
T5 sequence (P40306 whole entry): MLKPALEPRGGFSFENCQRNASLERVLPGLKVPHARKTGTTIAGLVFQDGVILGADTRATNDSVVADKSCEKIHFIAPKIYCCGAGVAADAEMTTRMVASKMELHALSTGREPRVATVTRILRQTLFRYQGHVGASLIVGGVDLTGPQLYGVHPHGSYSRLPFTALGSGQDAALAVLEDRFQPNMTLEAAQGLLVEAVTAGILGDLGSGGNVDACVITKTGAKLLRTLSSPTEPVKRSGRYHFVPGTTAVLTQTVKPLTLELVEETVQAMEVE

[15] = target: Trypsin (Homo sapiens) (UniProt P07477+P07478+P35030); assay: Inhibition of human trypsin at 33.3 uM; type: protein assay
[16] = test system: RPMI-8226; assay: Synergistic cytotoxic activity against human RPMI-8226 cells after 72 hrs in presence of 0.25 uM of (S)-N5-(tert-butyl)-N1-((S)-1-(((4-fluoronaphthalen-1-yl)methyl)amino)-3-methoxy-1-oxopropan-2-yl)-2-((4-methylphenyl)sulfonamido)pentanediamide by celltitre-glo assay; type: functional, cell-based; conditions: RPMI-8226, 72 h
[17] = target: T4, Proteasome Macropain subunit MB1 (Homo sapiens); assay: Inhibition of 20s constitutive proteasome beta-5c in human HepG2 cells incubated by proteasome glo assay kit analysis; type: cell-based; conditions: time <= 1.0 hrs
[18] = test system: MM1.S; assay: Synergistic cytotoxic activity against human MM1.S cells after 72 hrs in presence of 0.02 uM of (S)-N5-(tert-butyl)-N1-((S)-1-(((4-fluoronaphthalen-1-yl)methyl)amino)-3-methoxy-1-oxopropan-2-yl)-2-((4-methylphenyl)sulfonamido)pentanediamide by celltitre-glo assay; type: functional, cell-based
[19] = test system: PBMC; assay: Cytotoxicity against human PBMC cells expressing 20s immunoproteasome beta-5i after 72 hrs by celltitre-glo assay; type: functional, cell-based
[20] = target: T3, Proteasome subunit beta type-8 (Homo sapiens); assay: Time dependent inhibition of human 20s immunoproteasome beta-5i subunit assessed as restoration of enzyme activity at 250 nM using Ac-ANW-AMC as substrate incubated upto 90 mins
[21] = target: T4, Proteasome Macropain subunit MB1 (Homo sapiens); assay: Inhibition of human 20s constitutive proteasome beta-5c assessed as restoration of enzyme activity at 2 nM incubated for 1 hr followed by compound removal by dialysis measured after 1 hr
[22] = target: Chymotrypsin (Homo sapiens) (UniProt Q99895+P17538+P40313+Q6GPI1); assay: Inhibition of human chymotrypsin at 11.1 uM; type: protein assay
[23] = target: Procathepsin L (Homo sapiens) (UniProt P07711); assay: Inhibition of human cathepsin L at 100 uM
[24] = target: T6, Proteasome subunit beta type-9 (Homo sapiens, UniProt P28065); assay: Inhibition of human 20s immunoproteasome beta-1i subunit
T6 sequence (P28065 whole entry): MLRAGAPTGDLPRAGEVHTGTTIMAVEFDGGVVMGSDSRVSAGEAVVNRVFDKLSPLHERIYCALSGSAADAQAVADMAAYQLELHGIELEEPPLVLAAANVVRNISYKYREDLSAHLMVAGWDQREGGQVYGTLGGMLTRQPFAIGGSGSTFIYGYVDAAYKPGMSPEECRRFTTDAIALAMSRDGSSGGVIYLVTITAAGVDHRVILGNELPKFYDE

[25] = target: T4, Proteasome Macropain subunit MB1 (Homo sapiens); assay: Time dependent inhibition of human 20s constitutive proteasome beta-5c assessed as restoration of enzyme activity at 10 nM using suc-LLVY-AMC as substrate incubated upto 90 mins

Sequence of Procathepsin L (Homo sapiens) (P07711 114-333 limits assumed): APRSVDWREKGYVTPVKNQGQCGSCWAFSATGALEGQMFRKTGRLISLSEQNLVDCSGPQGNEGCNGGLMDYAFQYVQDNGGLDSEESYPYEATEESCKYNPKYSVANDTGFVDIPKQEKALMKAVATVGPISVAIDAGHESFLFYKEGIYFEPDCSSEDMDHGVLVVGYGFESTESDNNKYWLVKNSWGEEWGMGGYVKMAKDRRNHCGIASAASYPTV

SMILES	pIC50 [1]	pIC50 [2]	also measured
CC(C)C[C@H](NC(=O)[C@H](Cc1ccccc1)NC(=O)c1cnccn1)B(O)O [BORTEZOMIB]			TDI [3]: Tde; pEC50 [4]: 8.40; pEC50 [5]: 7.89; TDI [6]: Tde; TIME [7]: 1.83 h; pEC50 [8]: 8.70
COC[C@H](NC(=O)c1cc(C)on1)C(=O)N[C@@H](COC)C(=O)N[C@@H](CC(C)C)C(=O)[C@@]1(C)CO1			pIC50 [9]: 6.52; pIC50 [10]: 7.70
CC(C)(C)NC(=O)C[C@H](NC(=O)CN1CCOCC1)C(=O)NCc1cccc(B(O)O)c1	< 4.00	< 4.00	
CC(C)(C)NC(=O)C[C@H](NC(=O)C(=O)C1CC1)C(=O)NCc1cccc(B(O)O)c1	< 4.00	4.62	
Cc1ccc(S(=O)(=O)N[C@@H](CC(=O)NC(C)(C)C)C(=O)NCc2cccc(O)c2)cc1	< 4.00	< 4.00	
Cc1ccc(S(=O)(=O)N[C@@H](CC(=O)NC(C)(C)C)C(=O)Nc2ccc(B(O)O)cc2)cc1	< 4.00	< 4.00	
COC[C@H](NC(=O)[C@H](CCC(=O)NC(C)(C)C)NS(=O)(=O)c1ccc(C)cc1)C(=O)NCc1ccc(F)c2ccccc12			pEC50 [4]: 6.16; pEC50 [11]: 6.90; pEC50 [12]: 8.22; pEC50 [8]: 6.90
CC(C)C[C@H](NC(=O)CN1CCOCC1)C(=O)N[C@@H](C[C@H]1CC[C@H](C2CCCCC2)CC1)C(=O)N[C@@H](Cc1ccccc1)C(=O)N[C@@H](C)C(=O)[C@@]1(C)CO1			pIC50 [9]: 4.64
Cc1ccc(S(=O)(=O)N[C@@H](CC(=O)NC(C)(C)C)C(=O)NCc2cccc(F)c2)cc1	< 4.00	< 4.00	
COc1ccc(Cc2noc(CN(C(=O)COc3ccc(Br)cc3)C(C)C)n2)cc1OC			pIC50 [10]: 7.43
Cc1ccc(S(=O)(=O)N[C@@H](CC(=O)NC(C)(C)C)C(=O)NCc2ccc(B(O)O)cc2)cc1	< 4.00	< 4.00	
Cc1ccc(S(=O)(=O)N[C@@H](CC(=O)NC(C)(C)C)C(=O)NCc2cccc(B(O)O)c2)cc1	< 4.00	6.68	
Cc1ccc(S(=O)(=O)N[C@@H](CC(=O)NC(C)(C)C)C(=O)NCc2cccc(C(F)(F)F)c2)cc1	< 4.00	< 4.00	
Cc1ccc(S(=O)(=O)N[C@@H](CC(=O)NC(C)(C)C)C(=O)Nc2cccc(B(O)O)c2)cc1	< 4.00	< 4.00	

Continued, in another order:

pIC50 [1]	pIC50 [2]	SMILES	also measured
< 4.00	< 4.00	CC(C)(C)NC(=O)C[C@H](NC(=O)c1cnccn1)C(=O)NCc1cccc(B(O)O)c1	
< 4.00	< 4.00	Cc1ccc(S(=O)(=O)N[C@@H](CC(=O)NC(C)(C)C)C(=O)NCc2ccc(B(O)O)s2)cc1	
< 4.00	< 4.00	Cc1ccc(S(=O)(=O)N[C@@H](CC(=O)NC(C)(C)C)C(=O)NCc2cccc(C(=O)O)c2)cc1	
< 4.00	< 4.00	Cc1ncc(C(=O)N[C@@H](CC(=O)NC(C)(C)C)C(=O)NCc2cccc(B(O)O)c2)s1	
4.24	5.85	CC(C)(C)NC(=O)C[C@H](NC(=O)c1cc(Cl)ccc1Cl)C(=O)NCc1cccc(B(O)O)c1	
< 4.00	< 4.00	Cc1ccc(S(=O)(=O)N[C@@H](CC(=O)NC(C)(C)C)C(=O)NCc2ccccc2)cc1	
< 4.00	6.62	CC(C)(C)NC(=O)C[C@H](NC(=O)C(=O)c1ccccc1)C(=O)NCc1cccc(B(O)O)c1	
< 4.00	< 4.00	Cc1ccc(S(=O)(=O)N[C@@H](CC(=O)NC(C)(C)C)C(=O)NCc2ccco2)cc1	
4.16	6.15	CC(C)(C)NC(=O)C[C@H](NC(=O)Cc1c[nH]c2ccccc12)C(=O)NCc1cccc(B(O)O)c1	
< 4.00	5.42	CC(C)(C)NC(=O)C[C@H](NC(=O)c1ccccc1)C(=O)NCc1cccc(B(O)O)c1	
4.34	5.52	COC[C@H](NC(=O)C(=O)c1c[nH]c2ccccc12)C(=O)NCc1cccc(B(O)O)c1	
< 4.00	8.30	CCCc1ccc(OCC(=O)N(Cc2nc(-c3cccnc3)no2)C(C)C)cc1	pIC50 [9]: 5.66; pIC50 [10]: 7.57
< 4.00	5.23	Cc1cc(C(=O)N[C@@H](CC(=O)NC(C)(C)C)C(=O)NCc2cccc(B(O)O)c2)no1	
< 4.00	< 4.00	Cc1ccc(S(=O)(=O)N[C@@H](CC(=O)NC(C)(C)C)C(=O)NCc2cccs2)cc1	
4.32	6.12	CC(C)(C)NC(=O)C[C@H](NC(=O)CCc1ccc(F)cc1)C(=O)NCc1cccc(B(O)O)c1	
4.24	5.59	Cc1ccc(S(=O)(=O)N[C@@H](CC(=O)NC(C)(C)C)C(=O)NCc2ccc(B(O)O)o2)cc1	
4.64	5.42	CC(C)(C)NC(=O)C[C@H](NC(=O)c1cc(-c2ccccc2)ccn1)C(=O)NCc1cccc(B(O)O)c1	
5.15	8.00	CC(C)(C)NC(=O)C[C@H](NC(=O)C(=O)c1c[nH]c2ccccc12)C(=O)NCc1cccc(B(O)O)c1	inhibition [13]: Dose-Dependent Effect; pIC50 [14]: < 4.48; inhibition [15]: inactive; pEC50 [16]: 6.76; pEC50 [4]: 5.78; inhibition [17]: Dose-Dependent Effect; pEC50 [5]: 5.49; pEC50 [18]: 8.00; pEC50 [19]: < 4.30; TDI [20]: inactive; inhibition [21]: inactive; inhibition [22]: inactive; inhibition [23]: inactive; pEC50 [8]: 7.24; pIC50 [24]: < 4.48; TDI [25]: inactive
4.95	7.07	CC(C)(C)NC(=O)CC[C@H](NC(=O)C(=O)c1c[nH]c2ccccc12)C(=O)NCc1cccc(B(O)O)c1	pIC50 [14]: < 4.48; pEC50 [4]: 4.82; pEC50 [5]: 4.31; pEC50 [8]: 6.12; pIC50 [24]: < 4.48
